Data from US20220022457A1, “Microbicide Ammonium-Imidazolium Oligomers and Their Anti-Fungal Compositions” (AGENCY FOR SCIENCE, TECHNOLOGY AND RESEARCH, priority 2018, published 2022).
Values after ≈ are worked out from the molar mass of the structure shown. Values joined by “and” are separate entries in the source; they are usually repeats but may differ in a detail not shown here. Equal entries are not always repeated.

Tests used:
[1] = Critical micelle concentration; assay type: physicochemical
[2] = tested on: mouse red blood cells (RBCs); assay: Hemolysis study; assay type: cell-based; conditions: oligomer concentration giving 10% hemolysis, 1 h, 37° C.
Experimental: After 1 h incubation at 37° C., the mixture was centrifuged at 2000 rpm for 5 min. Aliquots (100 μl) of the supernatant were transferred to a 96-well plate. Hemolytic activity was determined as a function of hemoglobin release by measuring absorbance of the supernatant at 576 nm using a microplate reader. A control solution that contained only PBS was used as a reference for 0% hemolysis. Absorbance of red blood cells lysed with 0.5% Triton-X was taken as 100% hemolysis. The oligomer concentration which results in 10% hemolysis is indicated as HC10 in Table 1. The data were expressed as mean and S.D. of four replicates. % Hemolysis=[OD576 nm (polymer)−OD576 nm (PBS)]/[OD576 nm (Triton-X)−OD576 nm (PBS)]×100%

[3] = tested on: Candida albicans (ATCC 10231, fungus); assay: Minimum inhibitory concentration, microdilution assay; assay type: cell-based; conditions: for MIC C.A. / MIC: Candida albicans ~10^6 CFU/ml, YMB, room temperature, no visible growth; for MIC50 C.A. (value in brackets): Candida albicans, concentration inhibiting 50% fungal growth; for MIC: ATCC10231
Experimental: Staphylococcus aureus (ATCC 6538, Gram-positive), Escherichia coli (ATCC 8739, Gram-negative), Pseudomonas aeruginosa (ATCC 9027, Gram-negative), and Candida albicans (ATCC 10231, fungus) were used as representative microorganisms to challenge the antimicrobial functions of the oligomers. All bacteria and fungus were frozen at -80° C., and were grown overnight at 37° C. in Mueller Hinton Broth (MHB, BD Singapore) prior to experiments. Fungus was grown overnight at 22° C. in Yeast Mold Broth (YMB, BD Singapore). […] […] […] Medium solution containing microbial cells alone were used as control (100% microbial growth). The assay was performed in four replicates and the experiments were repeated at least two times.

[4] = tested on: Staphylococcus aureus (ATCC 6538, Gram-positive); assay: as above; assay type: cell-based; conditions: lowest concentration with no visible growth; for MIC S.A.: 24 h
Experimental: (§1) Staphylococcus aureus (ATCC 6538, Gram-positive), Escherichia coli (ATCC 8739, Gram-negative), Pseudomonas aeruginosa (ATCC 9027, Gram-negative), and Candida albicans (ATCC 10231, fungus) were used as representative microorganisms to challenge the antimicrobial functions of the oligomers. All bacteria and fungus were frozen at -80° C., and were grown overnight at 37° C. in Mueller Hinton Broth (MHB, BD Singapore) prior to experiments. Fungus was grown overnight at 22° C. in Yeast Mold Broth (YMB, BD Singapore). […] The plates were incubated at 37° C. for 24 h with constant shaking speed at 300 rpm. […] Medium solution containing microbial cells alone were used as control (100% microbial growth). The assay was performed in four replicates and the experiments were repeated at least two times.

[5] = tested on: Escherichia coli (ATCC 8739, Gram-negative); assay: as above; assay type: cell-based; conditions: lowest concentration with no visible growth; for MIC E.C.: 24 h
Experimental: as §1

[6] = tested on: Pseudomonas aeruginosa (ATCC 9027, Gram-negative); assay: as above; assay type: cell-based; conditions: lowest concentration with no visible growth; for MIC P.A.: 24 h
Experimental: as §1

[7] = tested on: C. albicans; assay: Checkerboard assay of oligomers with triazoles (FIC); assay type: cell-based; conditions: Candida albicans; for FIC with Fluconazole: calculated from lowest concentration inhibiting at least 50% growth; for Alone MIC50 component A: oligomer alone
Experimental: […]. […] A row and a column in which a serial dilution of each agent was present alone were also prepared for MIC test. Then each solution in the well plate was inoculated with 100 μL of logarithmically grown 10^6 cells/ml C. albicans cells in the 96-well plate. The plate also contained a column with C. albicans only as control (100% cell growth). The cells were incubated at room temperature for 24 h with constant shaking, after which cell growth (i.e. the O.D. at 600 nm) was monitored with a microplate reader (TECAN) Synergy between fluconazole and oligomers was determined by calculating the fractional inhibitory concentration index ([…] was calculated as follows: FIC=(MIColigomer A in combination/MIColigomer A alone)+(MICazole B in combination/MICazole B alone). […] The interaction of selected oligomers with other triazoles such as itraconazole and voriconazole was also investigated using the checkerboard dilution method. For comparison, the interaction of the selected oligomer with a non-triazole antifungal agent […] was also investigated.

[8] = tested on: Candida albicans; assay: Killing efficacy of selected oligomers at 62 μg/ml (FIG. 1); assay type: cell-based; conditions: 62 μg/ml; survivors at 24 h compared with 0 h
[9] = oligomer in combination with Fluconazole
[10] = oligomer with Fluconazole (Table 2)
[11] = triazole in combination with IDPBX8
[12] = triazole in combination with IDPPX8

Row | Compound | CMC [1] [µg/mL] | MIC C.A. [3] [µg/mL] | MIC50 C.A. (value in brackets) [3] | MIC S.A. [4] [µg/mL] | MIC E.C. [5] [µg/mL] | MIC P.A. [6] [µg/mL] | HC10 [2] [µg/mL] | FIC with Fluconazole [7] | further results
1 | CCCCCCCC[n+]1ccn(CC=CC[N+]23CC[N+](CC=CCn4cc[n+](CCCCCCCC)c4)(CC2)CC3)c1.[Br-].[Br-].[Br-].[Br-] [IDIB8] | 1829 | >500 | (32) μg/ml | 8 | 16 | 500 | >2000 | 0.25 | –
2 | C(=C\C[N+]12CC[N+](Cc3ccc(C[n+]4ccn(Cc5ccccc5)c4)cc3)(CC1)CC2)/C[N+]12CC[N+](Cc3ccc(C[n+]4ccn(Cc5ccccc5)c4)cc3)(CC1)CC2 [IDPBXb] | 1732 | >1000 | (1000) μg/ml | 125 | 62 | >1000 | >2000 | – | –
3 | CCCCCCCC[N+]12CC[N+](Cc3ccccc3C[N+]34CC[N+](CCCCCCCC)(CC3)CC4)(CC1)CC2.[Br-].[Br-].[Br-].[Br-] [DDO8] | 3038 | 125 | (16) μg/ml | 4 | 8 | 62 | >2000 | 0.38 | –
4 | CCCCCCCC[N+]12CC[N+](C/C=C/C[N+]34CC[N+](CCCCCCCC)(CC3)CC4)(CC1)CC2.[Br-].[Br-].[Br-].[Br-] [DDB8] | 1552 | 125 | (16) μg/ml | 4 | 8 | 125 | >2000 | 0.25 | Fungistatic or fungicidal [8]: fungistatic
5 | itraconazole [reference compound] | – | 0.016 to 0.03 | – | – | – | – | – | – | Alone MIC50 component B ([7]; triazole alone): 0.016 µg/mL and 0.03 µg/mL; Combined MIC50 component B [7, 11]: 0.015 µg/mL; Combined MIC50 component B [7, 12]: 0.004 µg/mL
6 | CCCCCCCC[N+]12CC[N+](Cc3ccc(C[N+]45CC[N+](CCCCCCCC)(CC4)CC5)cc3)(CC1)CC2.[Br-].[Br-].[Br-].[Br-] [DDP8] | 1896 | 500 | (31) μg/ml | 16 | 16 | 2000 | >2000 | 0.19 | –
7 | CCCCCCCC[n+]1ccn(Cc2ccc(C[N+]34CC[N+](Cc5ccc(Cn6cc[n+](CCCCCCCC)c6)cc5)(CC3)CC4)cc2)c1.[Br-].[Br-].[Cl-].[Cl-] [IDIP8] | 985 | 125 | (8) μg/ml | 2 | 16 | 1000 | >2000 | 0.25 | –
8 | C[C@@H](c1ncncc1F)[C@](O)(Cn1cncn1)c1ccc(F)cc1F [Voriconazole, voriconazole, reference compound] | – | – | – | – | – | – | – | – | MIC [3]: 0.025 to 0.1 µg/mL (≈ 0.0716 to 0.286 µM); Combined MIC50 component B [7, 11]: 0.006 µg/mL; Combined MIC50 component B [7, 12]: 0.003 µg/mL
9 | CCCCCCCC[n+]1ccn(Cc2ccccc2C[N+]23CC[N+](Cc4ccccc4Cn4cc[n+](CCCCCCCC)c4)(CC2)CC3)c1.[Br-].[Br-].[Br-].[Br-] [IDIO8] | 1667 | 62 | (32) μg/ml | 8 | 16 | 250 | >2000 | 0.25 | –
10 | CCCCCCCC[n+]1ccn(Cc2ccc(C[n+]3ccn(Cc4ccc(C[n+]5ccn(Cc6ccccc6Cn6cc[n+](Cc7ccc(Cn8cc[n+](Cc9ccc(Cn%10cc[n+](CCCCCCCC)c%10)cc9)c8)cc7)c6)c5)cc4)c3)cc2)c1 [IBN-C8, reference compound] | 226 | – | – | – | – | – | >2000 | 2.00 | MIC [3]: 16 µg/mL; MIC ([4]; ATCC6538, 24 h): 4 µg/mL; MIC ([5]; ATCC8739, 24 h): 8 µg/mL; MIC ([6]; ATCC9027, 24 h): 16 µg/mL

Continued, in another order:

Row | CMC [1] [µg/mL] | MIC C.A. [3] [µg/mL] | MIC50 C.A. (value in brackets) [3] | MIC S.A. [4] [µg/mL] | MIC E.C. [5] [µg/mL] | MIC P.A. [6] [µg/mL] | Compound | HC10 [2] [µg/mL] | FIC with Fluconazole [7] | further results
11 | 1552 | 62 | (8-31) μg/ml | 8 | 62 | 500 | CCCCCCCC[n+]1ccn(Cc2ccc(C[N+]34CC[N+](Cc5ccc(C[N+]67CC[N+](Cc8ccc(Cn9cc[n+](CCCCCCCC)c9)cc8)(CC6)CC7)cc5)(CC3)CC4)cc2)c1.[Br-].[Br-].[Br-].[Br-].[Br-].[Br-] [IDPPX8] | >2000 | 0.25 | Fungistatic or fungicidal [8]: fungistatic; Interaction when applied together with voriconazole [7]: Synergy; Alone MIC50 component A [7]: 16 µg/mL; Combined MIC50 component A [7, 9]: 2 µg/mL; Combined MIC50 component A ([7]; oligomer in combination with Itraconazole): 4 µg/mL; Combined MIC50 component A ([7]; oligomer in combination with Voriconazole): 4 µg/mL; FIC [7, 10]: 0.19; FIC ([7]; oligomer with Itraconazole): 0.50; FIC ([7]; oligomer with Voriconazole): 0.30
12 | 1860 | 2000 | (500) μg/ml | 125 | 62 | >1000 | c1ccc(Cn2cc[n+](Cc3ccc(C[N+]45CC[N+](Cc6ccc(C[N+]78CC[N+](Cc9ccc(C[n+]%10ccn(Cc%11ccccc%11)c%10)cc9)(CC7)CC8)cc6)(CC4)CC5)cc3)c2)cc1 [IDPPXb] | – | 0.5 | –
13 | 727 | 31 | (2-8) μg/ml | 8 | 31 | 125 | CCCCCCCC[n+]1ccn(Cc2ccc(Cn3cc[n+](Cc4ccc(C[N+]56CC[N+](C/C=C/C[N+]78CC[N+](Cc9ccc(C[n+]%10ccn(Cc%11ccc(Cn%12cc[n+](CCCCCCCC)c%12)cc%11)c%10)cc9)(CC7)CC8)(CC5)CC6)cc4)c3)cc2)c1.[Br-].[Br-].[Br-].[Br-].[Br-].[Br-].[Br-].[Br-] [IIDPPBX8] | >2000 | 1.00 | Alone MIC50 component A [7]: 2 µg/mL; Combined MIC50 component A [7, 9]: 1 µg/mL; FIC [7, 10]: 1.0
14 | 291 | 62 | (8) μg/ml | 4 | 62 | 250 | CCCCCCCC[n+]1ccn(Cc2ccc(Cn3cc[n+](C/C=C/C[N+]45CC[N+](C/C=C/C[n+]6ccn(Cc7ccc(Cn8cc[n+](CCCCCCCC)c8)cc7)c6)(CC4)CC5)c3)cc2)c1.[Br-].[Br-].[Br-].[Br-].[Br-].[Br-] [IIDPBX8] | >2000 | 0.31 | –
